Reference: patent US9808536B2, “Hypericin albumin nanoparticle-Escherichia coli serum antibody complex and preperation method and application thereof” (LANZHOU INSTITUTE OF HUSBANDRY AND PHARMACEUTICAL SCIENCES …, priority 2015, dated 2017)
In brackets after ≈: the same amount, converted by molar mass.

Legend:
[1] = system: Escherichia coli (E. coli) C4403; assay: Minimal inhibitory concentration, double dilution method, Escherichia coli; details: for minimal inhibitory concentration: Escherichia coli, no growth on agar plate after 24 hours
[2] = system: Staphylococcus aureus (S. aureus) C26112; assay: Minimal inhibitory concentration, double dilution method, Staphylococcus aureus; details: for minimal inhibitory concentration: Staphylococcus aureus, no growth on agar plate after 24 hours
Escherichia coli = assay: Treatment of colibacillosis animal model (mice); details: control groups, 30 mice; hypericin injection 1.0 mL/mouse intramuscular
[3] = system: pathogenic Escherichia coli; assay: Treatment of chicken colibacillosis (sick chickens); details: 2.00 mg/Kg intramuscular, 2 times/d, 1 d, 50 chickens
[4] = 0.2 μg/ml, 24 hours, eye observation of turbidity
[5] = 0.4 μg/ml, 24 hours, eye observation of turbidity
[6] = 0.8 μg/ml, 24 hours, eye observation of turbidity
[7] = 3.2 μg/ml, 24 hours, eye observation of turbidity
[8] = 6.4 μg/ml, 24 hours, eye observation of turbidity
[9] = 12.8 μg/ml, 24 hours, eye observation of turbidity
[10] = 25.6 μg/ml, 24 hours, eye observation of turbidity

Cc1cc(O)c2c(=O)c3c(O)cc(O)c4c5c(O)cc(O)c6c(=O)c7c(O)cc(C)c8c1c2c(c34)c(c78)c65 [Hypericin, hypericin]
bacterial growth in tube 8 [1, 4]: + | bacterial growth in tube 7 [1, 5]: + | bacterial growth in tube 6 [1, 6]: + | bacterial growth in tube 4 [1, 7]: − | bacterial growth in tube 3 [1, 8]: − | bacterial growth in tube 2 [1, 9]: − | bacterial growth in tube 1 [1, 10]: − | minimal inhibitory concentration [1]: 0.4 µg/mL (≈ 0.793 µM) | minimal inhibitory concentration ([1]; listed as 2): 6.4 µg/mL (≈ 12.7 µM) | bacterial growth in tube 8 [2, 4]: + | bacterial growth in tube 7 [2, 5]: + | bacterial growth in tube 6 [2, 6]: + | bacterial growth in tube 4 [2, 7]: − | bacterial growth in tube 3 [2, 8]: − | bacterial growth in tube 2 [2, 9]: − | bacterial growth in tube 1 [2, 10]: − | minimal inhibitory concentration [2]: 0.8 µg/mL (≈ 1.59 µM) | minimal inhibitory concentration ([2]; listed as 2): 6.4 µg/mL (≈ 12.7 µM) | Cure (number of mice) (Escherichia coli): 10 | Cure rate (%) (Escherichia coli): 33.3% | Effective (number of mice) (Escherichia coli): 27 | Effective rate (%) (Escherichia coli): 90% | Cure rate (%) [3]: 70% | Effective rate (%) [3]: 80% | Total amount of cured ones [3]: 35 | Total amount of effective ones [3]: 40 | Cure rate (%) ([3]; listed as hypericin): 80%
